Common to all, as to type: physicochemical
Series [1] in a line: Stability of Compound A salts in water (XRPD). The conditions noted are these: about 20 mg in 1 mL water, overnight, 20° C., 850 rpm. As for the experimental part: The stability of the sulfate, phosphate, L-lysine, and TRIS salts prepared in Example 3 were tested. Approximately 20 mg of each sample was combined with 1 mL of water in microcentrifuge tubes. The samples were allowed to mix overnight on a temperature controlled shaker at 20° C. at 850 rpm. The solids were characterized by XPRD to determine if a solid state form change occurred.

Series [2] is described as follows: Physical stability on storage by XRPD. Conditions: all storage conditions of the stability study. As to the method:
(§1) The material was stored at 4° C., 25° C./60% RH, 40° C., and 40° C./75% RH for eight weeks as well as stressed conditions of 70° C. and 70° C./75% RH for two weeks. In addition, photostability was also measured after exposing the material to two cycles of ICH conditions. Degradation and recovery was measured by HPLC. See Table 6 for HPLC results, including percent recovery of solids and relative retention time area percentages, compared against the standard stored at 4° C.
XRPD was used to check the physical stability.

Series [3] in a line: Dynamic vapor sorption analysis (hygroscopicity). The source says: At approximately 90% RH, the material reversibly picks up approximately 3.5% water by weight.
The nature of series [4]: Chemical stability study, degradation and recovery by HPLC. As for the experimental part: as §1
The nature of series [5]: Thermodynamic stability form (slurry) screen, XRPD. The conditions noted are these: fifteen days. As to the method: The vials were sealed then placed onto temperature controlled stir plates and stirred for fifteen days at 500 rpm.
A short description of series [6]: Relative thermodynamic stability of hemisulfate form 1 and form 2 (DSC, competition slurry). Conditions: ethyl acetate, two days at 25° C. then eight days at 4° C., slurried with form 1. As to the method:
[…] Both forms were still present in the slurry, so the experiment was moved to 4° C.
After two days, both forms were still present in the slurry, so the experiment was moved to 4° C.

This is an account of results in patent US11912681B2, “Crystalline and salt forms of PPAR agonist compounds” (Mitobridge, Inc., priority 2016, dated 2024).

Turning to `Cc1cnc(-c2ccc(C(F)(F)F)cc2)n1Cc1ccccc1OCCC[C@@H](C)CC(=O)O` [Compound A hemisulfate form 1, (R)-3-methyl-6-(2-((5-methyl-2-(4-(trifluoromethyl)phenyl)-1H-imidazol-1-yl)methyl)phenoxy)hexanoic acid], in series [1], the “solid state form change (XRPD) after mixing in water” value is reported as “no change in the solids”. Also, the “physical stability, solid state form (XRPD)” value in series [2] was “No changes in solid state form”. In addition, the “water picked up by weight (DVS)” value in series [3] (25° C., approximately 90% RH, reversible) is “approximately 3.5%”. For the same compound, in series [3] (after DVS at 25° C.), the “solid form after DVS (XRPD)” value is recorded as “remained Compound A hemisulfate form 1”. Also, the “% recovery of solids (HPLC)” value was 101% in series [4] (4° C., 4 wk); 100% in series [4] (4° C., 8 wk); 100% in series [4] (25° C./60% RH, 4 wk); 99% in series [4] (25° C./60% RH, 8 wk); 101% in series [4] (40° C., 4 wk); 101% in series [4] (40° C., 8 wk). Moreover, the “% recovery of solids (HPLC)” value in series [4] (40° C./75% RH, 4 wk) was determined as 101%; in series [4] (40° C./75% RH, 8 wk), 100%; in series [4] (70° C., 2 wk), 101%; in series [4] (70° C./75% RH, 2 wk), 101%; in series [4] (Control (dark) of photostability) it was 100%; in series [4] (Photo, two cycles of ICH conditions), 98%. Moreover, the “Results (solid state form after slurry)” value in series [5] (2-Methyl-THF, 25° C.) was “No change in form”; in series [5] (2-Propanol, 50° C.), “No change in form”; in series [5] (Acetone, 25° C.) it was “No change in form”; in series [5] (Acetonitrile, 50° C.), “No change in form”; in series [5] (CPME, 50° C.), “No change in form”; in series [5] (Dichloromethane, 4° C.), “No change in form”. The “Results (solid state form after slurry)” value in series [5] (Ethanol, 50° C.) is listed as “No change in form”; in series [5] (Ethyl Acetate, 50° C.) it was “No change in form”; in series [5] (Tetrahydrofuran, 25° C.) it was “No change in form”; in series [5] (Toluene, 50° C.), “No change in form”; in series [5] (Water, 25° C.) it was “No change in form”; in series [5] (Water/Acetonitrile (1/3, v/v), 4° C.), “No change in form”.
Turning to `Cc1cnc(-c2ccc(C(F)(F)F)cc2)n1Cc1ccccc1OCCC[C@@H](C)CC(=O)O` [Compound A hemisulfate form 2, (R)-3-methyl-6-(2-((5-methyl-2-(4-(trifluoromethyl)phenyl)-1H-imidazol-1-yl)methyl)phenoxy)hexanoic acid], the “competition slurry outcome (XRPD)” value in series [6] was “remained a mixture of forms”.
